System: male rhesus monkeys (Macaca mulatta)
Test: Cocaine discrimination testing (Study 1), pretreatment protocol
Assay type: in vivo
Conditions: cocaine alone
Experimental: Subjects: The subjects are four male rhesus monkeys (Macaca mulatta), weighing 5.7-8.1 kg and maintained on a diet of 3-4 monkey biscuits and one piece of fresh fruit per day. During the week, all food is delivered after the experimental session, whereas at weekends, food is delivered between 9 a.m. and noon. Water is freely available at all times. The monkeys are housed in a humidity and temperature controlled room with a 12 h light-dark cycle (lights on from 7 a.m. to 7 p.m.). Apparatus: Each monkey is housed individually in a well-ventilated, stainless steel chamber (56×71×69 cm) which includes an operant panel (28×28 cm) mounted on the front wall. Three response keys are arranged in a horizontal row 3.2 cm from the top of the operant panel. Each key can be transilluminated by red or green stimulus lights (Superbright LEDs). An externally mounted pellet dispenser delivers 1 g fruit-flavoured food pellets to a food receptacle beneath the operant response panel. A computer, located in a separate room, controls the operant panels and data collection. […]
During each response period, 3 dependent variables are determined: • 1) Percent injection-appropriate responding prior to delivery of the first reinforcer. • 2) Percent injection-appropriate responding for the entire response period • 3) Response Rate.
Monkeys meeting the following criteria during the training day immediately proceeding the test day and in at least 6 of 7 consecutive training sessions before this are used for discrimination testing: • 1) the percent injection-appropriate responding prior to delivery of the first reinforcer is ≧80% for all cycles; • 2) the percent injection-appropriate responding for the entire cycle is ≧90% for all cycles; • 3) Response rates during saline training cycles are >0.5 responses per second. […] In this protocol, a cumulative dose-effect curve for cocaine (0.013-1.3 mg/kg) is determined either alone or following pretreatment with the test compound, which is administered 20 min before the first dose of cocaine. […]

COC(=O)[C@H]1[C@@H](OC(=O)c2ccccc2)C[C@@H]2CC[C@H]1N2C.Cl [cocaine, Cocaine hydrochloride]
response rates (1.3 mg/kg): usually decreases response rates
cocaine-appropriate responding (cumulative 0.013-1.3 mg/kg, all four monkeys): dose-dependent increase in cocaine-appropriate responding
substitution for training stimulus (training dose 0.4 mg/kg, all monkeys): Complete substitution
